Type in all cases: physicochemical
Series [1] in a line: Lidocaine binding and partitioning into lipid bodies (UV 260 nm after 0.2 μm filtration). The text has this:
Lipid bodies were cleared of excipients and antimicrobial preservative by undergoing a 1:10 wash in ethanol followed by rehydration in distilled water.

A short description of series [2]: Drug loading into lipid-body composition and release into PBS (UV-VIS / HPLC). The following applies: for drug released, concentration: 6-fold dilution.
Series [3] can be described thus: Uptake of hydrophobic dyes by lipid bodies (mixing, centrifugation/flotation). To be noted: for uptake of hydrophobic model compound into lipid bodies: about 50% lipid bodies, mixed about 10 minutes, centrifuged. The protocol:
In this example, fermentations of different engineered hyper lipogenic Lipomyces starkeyi were used to create lipid bodies. Using the engineered hyper-lipogenic strain XYL-403, compositions of lipid bodies were prepared with a diameter from 6.9+/−1.4 microns when measured under a microscope using a calibrated Petroff Hauser counter. Following the initial preparation of lipid bodies, the lipid bodies were fused using high levels of salt at 1M NaCl, solvents such as ethanol at 20% (v/v) in water, and application of shear force using centrifugation (FIG. 12A). Homogenization, filtration, or chemical treatments can be used as alternatives to or in additional centrifugation to induce shear force. Thus, compositions utilizing even larger lipid bodies (e.g., between 12 to 50 μm) can be developed using physically modified and merged lipid bodies. The advantages of larger lipid bodies can be extended using high total volumes of drug carrying capacity.
This example opens the possibility of even higher volumetric carrying capacity of lipid-body compositions of the invention when expanded to the upper limit of known diameter.
In this example, lipid bodies at about 50% concentration in base composition of example 1A were subjected to the addition of concentrated Nile red, which had been solubilized in DMSO and used in this example as a surrogate for a hydrophobic compound or hydrophobic drug. The lipid-body composition was mixed with Nile red for 10 minutes and centrifuged. After centrifugation, the lipid bodies separate by flotation and all of the Nile red entered into the lipid bodies. The lipid bodies remain hydrophilic on the exterior of the lipid body spheres and continue to feel aqueous.
In another version of this example, lipid bodies at approximately 50% by dry weight were mixed with a second hydrophobic model drug compound, Sudan black. […] Similar to the Nile red results, Sudan black is shown to be taken up by lipid bodies (FIG. 13B).

Setting [4] is: 100 μL of 5 mg/mL stock per 1 g lipid bodies, 300 mg in 1 mL PBS, 15 min, room temperature, UV 343 nm.
Where [5] appears, read: Example 19: dry powder loading plus 33 μL PBS, UV 350 nm.

The structures appear in SMILES notation.

For `CCN(CC)CC(=O)Nc1c(C)cccc1C` [Lidocaine], the “Lidocaine in Aqueous Cream Fraction” value in series [1] (500 μg Lidocaine in Salt (1M NaCl)) amounted to 72%; in series [1] (500 μg Lidocaine in Water) it was 83%; in series [1] (Control: 500 μg Lidocaine without Lipid Bodies and Filtered) it was 100%.

Consider `CCCCc1nc(Cl)c(CO)n1Cc1ccc(-c2ccccc2-c2nn[nH]n2)cc1` [Losartan], for which the “Losartan released into 1 mL PBS, concentration” value in series [2] (100 μL of 5 mg/mL stock per 1 g lipid bodies, 300 mg in 1 mL PBS, HPLC 210 nm, 3.9 minutes) was found to be 54.4 µg/mL. For the same molecule, the total release in series [2] (Losartan, 300 mg in 1 mL PBS, HPLC 210 nm) is on record as 36.3%.

Take `CCN(CC)c1ccc2nc3c4ccccc4c(=O)cc-3oc2c1` [Nile red]: the “uptake of hydrophobic model compound into lipid bodies” value in series [3] is “quantitatively complete”.

With `CC1(C)Nc2cccc3c(N=Nc4ccc(N=Nc5ccccc5)c5ccccc45)ccc(c23)N1` [Sudan black], the “uptake of hydrophobic model compound into lipid bodies” value in series [3] is given as “essentially all of the Sudan black loaded into the lipid bodies”. In series [3] (merged very large lipid bodies (1M NaCl, 20% ethanol, centrifugation)), the “taken up into the lipid bodies” value is around 100%.

In the case of `CC(C)OC(=O)CCC/C=C\C[C@@H]1[C@@H](/C=C/[C@@H](O)COc2cccc(C(F)(F)F)c2)[C@H](O)C[C@@H]1O` [Travoprost], the Travoprost released in series [2] (first procedure: 2 μL of 25 mg/mL per 1 g lipid bodies, 300 mg in 1 mL PBS, HPLC 210 nm) was 50%. This molecule showed a Travoprost release in series [2] (second procedure: 250 μg evaporated concentrate per 1 g lipid bodies, 100 mg in 1 mL PBS, HPLC) of 60.7%.

Consider `CCN(CC)CCCC(C)Nc1ccnc2cc(Cl)ccc12` (stereo not drawn) [chloroquine], for which, in series [2] (setting [4]), the total release came out at 8.1% and the “drug released, concentration” value came out at 12.1 µg/mL. In series [2] (Example 21, repeat dilution (1 to 3 then 1 to 2)), this molecule gave a total release of 8.1%.

With `COc1cc2c(c(OC)c1OC)-c1ccc(OC)c(=O)cc1[C@@H](NC(C)=O)CC2` [colchicine], the colchicine released in series [2] (Example 15: 55% aqueous/45% drug-containing lipid-body composition, 100 μL of 2 mg/mL stock per 1 g lipid body, 300 mg in 1 mL PBS, 15 min, room temperature, UV 350 nm) is 5.9 µg/mL; in series [2] (Example 16: 62% liquid/38% composition, HPLC), 41%; in series [2] (Example 17: 67% liquid/33% drug-containing lipid-body composition, 178 μL PBS added, UV 350 nm), 22.6 µg/mL; in series [2] (Example 18: 30 mg dry powder mixed into 1 g lipid bodies, 300 mg in 2 mL PBS, 15 min, room temperature, UV 350 nm), 3,390 μg/mL; in series [2] (setting [5]) it was 4000 µg/mL. In addition, the drug release in series [2] (Example 15: 55% aqueous/45% drug-containing lipid-body composition, 300 mg in 1 mL PBS, 15 min, room temperature, UV 350 nm) was 9.8%. Also, the drug released in series [2] (Example 16: 62% liquid/38% composition, HPLC (350 nm, 2.9 minutes)) was determined as 61.5 µg/mL; in series [2] (Example 16: 62% liquid/38% drug-containing lipid-body composition, 5 mg/mL stock, 200 μL PBS added, 1 mL PBS, room temperature, UV 350 nm), 51.8 µg/mL. Besides, the “released, % of the total colchicine” value in series [2] (Example 16: 62% liquid/38% composition, UV 350 nm) came to 34.5%; in series [2] (setting [5]), 44%. In addition, the “released, % of the total compound loaded” value in series [2] (Example 17: 67% liquid/33% composition, UV 350 nm) turned out to be 15.1%. The “released, % of the total colchicine present” value in series [2] (Example 18: dry powder loading, 50% lipid-body composition, UV 350 nm) was 37.6%.

As to `CCN(CCO)CCCC(C)Nc1ccnc2cc(Cl)ccc12` (stereo not drawn) [hydroxychloroquine], in series [2] (setting [4]), the total release worked out at 10.4% and the “drug released, concentration” value came out at 5.66 µg/mL.

Source of the values: patent publication US12350364B2, “Lipid body compositions, products made therefrom, methods of making same, and methods of use” (Xylome Corporation, priority 2019, dated 2025).
